Test results: patent publication EP1506285B1, “COMBINATIONS OF ANTI-DR5 ANTIBODIES AND ANTI-DR4 ANTIBODIES AND OTHER THERAPEUTIC AGENTS” (UAB RESEARCH FOUNDATION, priority 2001, dated 2003)
Residues, ends and D or L forms follow the SMILES beside them. *: point of attachment. Cbz = O=C(OCc1ccccc1)*; CH2F = FC*

What was measured:
[1] = system: 2LMP s.c. tumors; experiment: TRA-8 therapy alone or with chemotherapy or radiation, breast cancer xenografts; format: in vivo, Athymic nude mice
Description: Athymic nude mice were injected s.c. with 3 x 10^7 2LMP cells. […] The growth of tumors was monitored over time. […] Tumor size and regression rates were determined.
Data from 6 independent experiments were analyzed by individual experiment. Treatment combinations were compared with respect to in vivo anti-tumor efficacy, i.e., inhibition of tumor growth, which was measured as three endpoints; extension of tumor doubling times, percentage of tumor regressions, and growth rates over time. The actual number of days at which the tumor doubled in surface area (product of two diameters) relative to baseline on day 7 after tumor cell injection was used in the doubling time analysis. The nonparametric Kruskal-Wallis test was used for median tumor doubling time comparisons between treatments. Fisher's exact test was used to compare the proportions of tumor regressions and relapse-free regressions across treatment groups. To determine if any combination therapy produced significant synergistic inhibition of tumor growth, i.e., more than additive, the growth curves from the serial area measurements were compared using a linear mixed model approach over the first 3 weeks after start of therapy (Lindsey, J.K. Models for Repeated Measurements, pp. 100-142, Oxford, 1993). To test for synergistic effects of the combination therapies, an interaction term was included in the model. If the interaction term was significant and the effect was inhibition of growth at a rate greater than additive then the interaction was considered synergistic.
A total of 166 animals, 10 treatment groups, and 6 independent experiments were included in the aggregate analysis. Treatment combinations were compared with respect to in vivo anti-tumor efficacy. The median tumor doubling times were analyzed using the Kruskal-Wallis test and Fisher's exact test was used to compare the proportions of tumor regressions and relapse-free regressions across treatment groups.

[2] = system: 2LMP xenografts; experiment: Analysis of apoptosis in xenografts, TUNEL; format: in vivo, Athymic nude mice; details: day 14; TRA-8 100 µg i.p. days 7, 10; adriamycin 3 mg/kg or paclitaxel 10 mg/kg days 8, 11
Description: One group of mice was untreated. The xenografts were dissected for the study of apoptosis on day 14 after tumor cell injection. The reason for the substantial reduction in treatment intensity compared to our standard treatment protocol was to allow adequate tumor tissue for analysis on day 14. Tunel assay for apoptosis in tumor xenografts was performed as follows. Five-micron paraffin sections of tissue were mounted on Superfrost/Plus slides and heated at 58°C for 1 h. Tissue sections were deparaffinized in three changes of xylene and rehydrated with one change of absolute ethanol, 95% ethanol, and 70% ethanol, each in 5-min increments. Then, the sections were placed in Tris-buffered saline (0.5M Tris base, 0.15 M NaCl, 0.0002% Triton X-100, pH 7.6). Apoptotic nuclei were detected using an Apop Tag Peroxidase kit (Intergen, Purchase, NY). Proteinase K (20 µg/ml in distilled deionized H2O) was added to the tissue specimens and incubated at room temperature for 15 min. Endogenous peroxidases were quenched with an aqueous solution of 3% hydrogen peroxide for 5 min. Sections were treated with an equilibration buffer for 3 0 min and then incubated with the TdT/enzyme (diluted in labeling reaction mix) for 1 h at 37°C using parafilm covers. During this incubation, the TdT enzyme binds the 3'-OH ends of DNA fragments and catalyzes the addition of digoxigenin-labeled and unlabeled deoxynucleotides. Negative controls were incubated with distilled H2O (diluted in labeling reaction mix) instead of the TdT enzyme. A stop buffer was added for 10 min at room temperature to terminate the labeling reaction. An anti-digoxigenin conjugate was added to each slide for 30 min. The chromagen 3,3' DAB was used to visualize the labeled 3' OH end of DNA fragments. The slides were then rinsed in deionized water and lightly counterstained with hematoxylin, dehydrated using graded alcohols and xylene and coverlsipped using Permount. Approximately 10 random fields were evaluated for percentage of Tunel stained and percentage of intensely stained apoptotic bodies throughout the tissue.

[3] = system: CLL B cells; experiment: Cytotoxicity to chronic lympholytic leukemia B cells in vitro; format: cell-based, human; details: five patients; compared to normal primary B cells
[4] = system: Jurkat cells; experiment: Cell viability / apoptosis induction in Jurkat cells; format: cell-based, human; details: 50 ng/ml TRA-8 overnight
Description: Cell viability is determined using (1) the ATPLite kit according to the manufacturer's instructions (Packard Instruments, Meriden, CT); (2) the MTT Cell proliferation/viability kit (Sigma); or (3) PI staining of dead cells and analyzed by flow cytometry. At end of culture, cells are stained with 10 µg/ml PI and PI negative cells are gated as viable cells. For analysis of condensed nuclei of hepatocytes, cells are stained with 10 ng/ml […] (Molecular Probes) and analyzed by flow cytometry.

[5] = target: human DR5/hIgG1 fusion protein (residues 1-180 of the extracellular portion of DR5 fused to the constant region of human IgG1; immunogen, ~50 kDa) (human) (UniProt O14763); experiment: ELISA on DR5-Ig, one-site binding model of non-linear regression
[6] = target: T1, human DR5, full length, on cells (human, UniProt O14763 56-440); experiment: radioisotope-labelled TRA-8 on a breast cancer cell line, compared with soluble TRAIL
T1 construct: whole, on cells; Used for Cos-7 cells transfected with full-length human DR5 cDNA and for human cells, cell lines and tissues that carry DR5 of their own; also called cell surface DR5; TRAIL-R2

COc1cccc2c1C(=O)c1c(O)c3c(c(O)c1C2=O)C[C@@](O)(C(=O)CO)C[C@@H]3O[C@H]1C[C@H](N)[C@H](O)[C@H](C)O1 [Adriamycin, doxorubicin]
complete regressions of tumor ([1]; TRA-8/adriamycin experiment (Figure 25)): no complete regressions | tumor growth compared to untreated controls ([1]; TRA-8/adriamycin experiment (Figure 25), 200 µg TRA-8, adriamycin 6 mg/kg i.v.): did not differ from controls | intense stained cells (TUNEL) [2]: 6% | stained cells (TUNEL) [2]: 8%

Cn1cc(C2=C(c3cn(CCCN)c4ccccc34)C(=O)NC2=O)c2ccccc21 [BisVIII, Bisindolylmaleimide VIII]
susceptibility of CLL B cells [3]: sensitive

CC(=O)O[C@H]1C(=O)[C@@]2(C)[C@H]([C@H](OC(=O)c3ccccc3)[C@]3(O)C[C@H](OC(=O)[C@H](O)[C@@H](NC(=O)c4ccccc4)c4ccccc4)C(C)=C1C3(C)C)[C@]1(OC(C)=O)CO[C@@H]1C[C@@H]2O [Paclitaxel]
complete regressions ([1]; TRA-8/paclitaxel experiment (Figure 26)): none | intense stained cells (TUNEL) [2]: 2% | stained cells (TUNEL) [2]: 7%

CC(NC(=O)C(NC(=O)OCc1ccccc1)C(C)C)C(=O)NC(CC(=O)O)C(=O)CF (stereo not drawn) [Z-VAD] (Cbz-Val-Ala-Asp-CH2F; configuration not given here)
inhibition of TRA-8-mediated cell death by caspase inhibitor [4]: completely inhibited

TRA-8 anti-human DR5 monoclonal antibody
Kd [5]: 3 nM

soluble recombinant human TRAIL (FLAG-tagged, Alexis) (from UniProt P50591 95-281) (ligand)
Kd [5]: 59 nM

B1: TRA-8 anti-human DR5 monoclonal antibody (antibody, mouse IgG1, kappa, V domains shown)
VH: EVMLVESGGGLVKPGGSLKLSCAASGFTFSSYVMSWVRQTPEKRLEWVATISSGGSYTYYPDSVKGRFTISRDNAKNTLYLQMSSLRSEDTAMYYCARRGDSMITTDYWGQGTTLTVSS
VL: DIVMTQSHKFMSTSVGDRVSITCKASQDVGTAVAWYQQKPGQSPKLLIYWASTRHTGVPDRFTGSGSGTDFTLTISNVQSEDLADYFCQQYSSYRTFGGGTKLEIKR
notes: Mouse IgG1, kappa; also called monoclonal anti-DR5 antibody (clone: TRA-8); mouse-mouse hybridoma TRA-8, ATCC PTA-1428
fold higher binding activity than soluble TRAIL [6]: ≥ 50 fold
